Drawing on PubChem BioAssay (NCI), this text covers TGI and GI50 for 14 compounds.

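Step 1: Grow cells in 96-well plates. Step 2: Expose to compound for 48 hours at 5 concentrations. Step 3: Interpolate endpoints linearly; if unreached, use highest concentration. GI50 = concentration required for 50% inhibition of growth. At the TGI there is no net growth.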

Common to all, as to assay: NCI anticancer screen, dose series, 48 h
Test [1] has as its system CCRF-CEM leukemia.
Test [2] deals with HCC-2998 colon.
For test [3], the system named is HOP-62 NSCLC.
For test [4], the system named is HT29 colon.
In test [5] the test system is K-562 leukemia.
The subject of test [6] is OVCAR-4 ovarian.
Test [7] relates to OVCAR-5 ovarian.
Test [8] concerns SNB-75 CNS.
For test [9], the system named is A498 renal.
Test [10] deals with NCI/ADR-RES ovarian.

For the compound `C#CC1(O)CCC2C3CCc4cc(Oc5nc(F)nc(-c6c7ccccc7c7sc8ccccc8n67)n5)ccc4C3CC[C@@]21C` (some centres undefined), the TGI in test [1], in test [2], in [3], in [4], in test [5] and in test [6] was more than 100 µM in each case. The results for the TGI in test [7] and in test [8] were more than 100 µM and 89.3 µM, respectively.

Consider `CCN1c2ccccc2C(C(SC)S(=O)(=O)c2ccc(C)cc2)c2c1[nH]c(=O)n(C)c2=O` (centres undefined), for which the TGI in [9], in [1], in test [2], in test [3], in [4] and in test [5] was more than 100 µM in each case. Also, the TGI in [6] is more than 100 µM; in test [7], more than 100 µM; in [8], 69.7 µM.

On to `OCC#Cc1ccccc1C#Cc1ccccc1`, for which the GI50 in test [1] is 7.14 µM; in [3], 13.9 µM; in [4] it was 23.6 µM; in test [5], 26 µM; in [10] it was 14.8 µM; in test [6] it was 17 µM. Further, the GI50 is 14.4 µM in test [7] and 14.6 µM in test [8]. The TGI was 39.8 µM in test [1]; 26.8 µM in test [3]; 97.6 µM in test [4]; more than 100 µM in [5]; 30.8 µM in test [10]; 45.2 µM in test [6]. The figures for the TGI in test [7] and in test [8] were 28.3 µM and 30.4 µM, respectively.

Take `C/C(=N\NC(=S)NC(CCC(=O)O)C(=O)O)c1ccccn1` (centres undefined): the TGI in [9], in test [1], in test [2], in test [3], in [4] and in test [5] was more than 100 µM throughout. In addition, the TGI in [6], in [7] and in test [8] was more than 100 µM each time.

In the case of `CCOC(=O)NC(=O)c1cn(CCCO)c(=O)[nH]c1=O`, the TGI in test [9], in [1], in test [2], in test [3], in [4] and in test [5] was more than 100 µM throughout. For the same compound, the TGI in [6], in [7] and in test [8] was more than 100 µM in each case.

Take `CC1=CC(O)(c2ccc(-c3ccccc3Cl)cc2)OC1=O` (centres undefined): the TGI in test [1], in [2], in [3], in [4], in [5] and in test [6] was more than 100 µM each time. Moreover, the TGI in [7] and in test [8] was more than 100 µM in each case.

In the case of `C[Si](C)(C)C1(Sc2ccccc2)SCCCS1`, the TGI was more than 100 µM in test [9]; 77.8 µM in test [1]; more than 100 µM in test [2]; 76.4 µM in test [3]; more than 100 µM in test [4]; more than 100 µM in test [5]. The TGI in test [6], in [7] and in [8] was more than 100 µM throughout.

In the case of `Clc1ccc(C(c2ccc(Cl)cc2)c2ccccn2)cc1`, the TGI in [1] came out at 48.1 µM; in test [2], 30.9 µM; in [4], 30.8 µM; in test [5] it was 55.6 µM; in test [6] it was 70.2 µM; in test [7], 29.5 µM. The TGI in test [8] is more than 100 µM.

Turning to `COc1cc(/C=C2\CN(S(=O)(=O)c3ccccc3)C/C(=C\c3cc(CN4CCCC4)c(O)c(OC)c3)C2=O)cc(CN2CCCC2)c1O`, the GI50 was 0.252 µM in [4]; more than 100 µM in test [10]; 1.27 µM in test [6]; 1.91 µM in [7]; 1.27 µM in test [8]. Further, the TGI is 1.65 µM in [4]; more than 100 µM in [10]; 3.09 µM in test [6]; 3.86 µM in test [7]; 2.71 µM in test [8].

Regarding `Brc1ccccc1C1SCc2nc3ccccc3n21` (centres undefined), the TGI is more than 100 µM in test [1]; 39.2 µM in [3]; 60.9 µM in [4]; more than 100 µM in test [5]; 75.9 µM in test [6]; 68 µM in [7]. The TGI in test [8] was found to be 47.1 µM.

Consider `CC(C)(C)OC(=O)N[C@H]1CC2(C=C(Cl)C(=O)C(Cl)=C2)OC1=O`, for which the TGI in test [9] is more than 9.94 µM; in test [1], 5.4 µM; in test [2], 31.8 µM; in test [3], more than 73.7 µM; in [4] it was 27.9 µM; in test [5], 7.41 µM. Besides, the TGI came out at 32.5 µM in [6], 38.6 µM in test [7] and 41.1 µM in test [8].

Regarding `O=C(/C=C\c1ccc(Cl)c(Cl)c1)c1ccc(Cl)cc1Cl`, the GI50 in [9] is more than 100 µM; in test [1], 4.62 µM; in test [3], more than 100 µM; in [5] it was 1.61 µM. For the same compound, the TGI in test [9] was more than 100 µM; in [1] it was 64.4 µM; in test [2], 58.6 µM; in test [3], more than 100 µM; in [4], 34.2 µM; in test [5] it was 26 µM. For the same compound, the TGI in test [6] was 88.7 µM; in test [8], 46.8 µM.

Consider `CCOC(=O)CC(=O)ON(C)C(C)=O`, for which the TGI in test [9], in test [1], in test [2], in test [3], in [4] and in test [5] was more than 100 µM in each case. Besides, the TGI in [6] and in test [7] was more than 100 µM in each case.

On to `CC(C)=Cc1cc(C(=O)Nc2ccc(Cl)c(Cl)c2)nc(N)n1`, for which the TGI in test [9], in [2], in test [3], in test [4], in [5] and in [6] was more than 100 µM throughout. For the same compound, the TGI in test [7] and in test [8] was more than 100 µM each time.
